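All cell lines were grown in 96-well plates and treated with compound for 48 hours. At the GI50, growth is halved.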 Calls of active or inactive are those of the source. Rule as the data show it: active = GI50 up to about 1.1 µM and inactive = higher.
Experiments:
Assay in all cases: DTP human tumour cell line panel, 48 h
[1] = system: 786-0
[2] = system: A498
[3] = system: ACHN
[4] = system: CAKI-1
[5] = system: COLO 205
[6] = system: DMS-114
[7] = system: DMS-273
[8] = system: EKVX
[9] = system: HCC 2998
[10] = system: HCT-116
[11] = system: HCT-15
[12] = system: HOP-18
[13] = system: HOP-62
[14] = system: HOP-92
[15] = system: HT-29
[16] = system: IGROV-1
[17] = system: K562
[18] = system: KM-20L2
[19] = system: KM12
[20] = system: LOX IMVI
[21] = system: LXFL 529
[22] = system: M14
[23] = system: Malme-3M
[24] = system: NCI-H226
[25] = system: NCI-H23
[26] = system: NCI-H460
[27] = system: NCI-H522
[28] = system: OVCAR-3
[29] = system: OVCAR-4
[30] = system: OVCAR-5
[31] = system: OVCAR-8
[32] = system: RPMI-8226
[33] = system: RXF 393
[34] = system: SF-268
[35] = system: SF-295
[36] = system: SF-539
[37] = system: SK-MEL-28
[38] = system: SK-MEL-2
[39] = system: SK-MEL-5
[40] = system: SK-OV-3
[41] = system: SN12C
[42] = system: SNB-19
[43] = system: SNB-75
[44] = system: SNB-78
[45] = system: SW-620
[46] = system: TK-10
[47] = system: U-251
[48] = system: UACC-257
[49] = system: UACC-62
[50] = system: UO-31
[51] = system: A549
[52] = system: CCRF-CEM
[53] = system: DLD-1
[54] = system: HL-60
[55] = system: M19-MEL
[56] = system: MOLT-4

In the case of `COc1ccc(NC(=O)C2C(=O)N(c3ccc(OC)cc3)C(=O)/C2=N\NC(N)=O)cc1` (stereo unspecified), the GI50 [1] is reported as 21.5 µM (inactive), the GI50 [2] is reported as 22.1 µM (inactive) and the GI50 [3] is reported as 27.6 µM (inactive). The GI50 [4] was > 100 µM (inactive), the GI50 [5] was > 100 µM (inactive) and the GI50 [6] was 63.7 µM (inactive). The GI50 [7] was 43.6 µM (inactive), the GI50 [8] was 40.6 µM (inactive) and the GI50 [9] was 30.9 µM (inactive). The GI50 [10] was 21.2 µM (inactive), the GI50 [11] was greater than 100 µM and the GI50 [12] was 21.2 µM (inactive). For the same compound, the GI50 [13] was 16.3 µM (inactive), the GI50 [14] was 31.3 µM (inactive) and the GI50 [15] was 58.6 µM (inactive). For the same compound, the GI50 [16] was 19.7 µM (inactive), the GI50 [17] was > 100 µM (inactive) and the GI50 [18] was 49.5 µM (inactive). The GI50 [19] was 20.3 µM (inactive), the GI50 [20] was 65.8 µM (inactive) and the GI50 [21] was 39.9 µM (inactive). The GI50 [22] was 92.5 µM (inactive), the GI50 [23] was 25.7 µM (inactive) and the GI50 [24] was 21.8 µM (inactive). For the same compound, the GI50 [25] was 56.1 µM (inactive), the GI50 [26] was 38.9 µM (inactive) and the GI50 [27] was 45.6 µM (inactive). The GI50 [28] was 34 µM (inactive), the GI50 [29] was 34.1 µM (inactive) and the GI50 [30] was 97.5 µM (inactive). For the same compound, the GI50 [31] was 19.4 µM (inactive), the GI50 [32] was > 100 µM (inactive) and the GI50 [33] was 22.5 µM (inactive). For the same compound, the GI50 [34] was 20.2 µM (inactive), the GI50 [35] was 37.1 µM (inactive) and the GI50 [36] was 16.8 µM (inactive). For the same compound, the GI50 [37] was 59.7 µM (inactive), the GI50 [38] was 40.9 µM (inactive) and the GI50 [39] was 17.8 µM (inactive). For the same compound, the GI50 [40] was 22.1 µM (inactive), the GI50 [41] was 98.9 µM (inactive) and the GI50 [42] was 41.1 µM (inactive). The GI50 [43] was 20.6 µM (inactive), the GI50 [44] was 57.1 µM (inactive) and the GI50 [45] was > 100 µM (inactive). For the same compound, the GI50 [46] was 23.9 µM (inactive), the GI50 [47] was 18.5 µM (inactive) and the GI50 [48] was 46.9 µM (inactive). The GI50 [49] was 16.6 µM (inactive) and the GI50 [50] was 27.7 µM (inactive).

`Cc1nc(-n2nc(-c3ccccc3)cc2-c2ccccc2)sc1C(=O)/C=C/c1cccc([N+](=O)[O-])c1` was tested, and the GI50 [1] was 12.7 µM (inactive), the GI50 [2] was 20.2 µM (inactive) and the GI50 [51] was 17.5 µM (inactive). The GI50 [3] was 23.3 µM (inactive), the GI50 [4] was 16.7 µM (inactive) and the GI50 [52] was 8.32 µM (inactive). For the same compound, the GI50 [5] was 17 µM (inactive), the GI50 [53] was 12 µM (inactive) and the GI50 [6] was 11.6 µM (inactive). For the same compound, the GI50 [7] was 26.5 µM (inactive), the GI50 [8] was 34.7 µM (inactive) and the GI50 [9] was 15.5 µM (inactive). The GI50 [11] was 16.8 µM, the GI50 [54] was 12.2 µM (inactive) and the GI50 [12] was 12.1 µM (inactive). For the same compound, the GI50 [13] was 15.9 µM (inactive), the GI50 [14] was 22.9 µM (inactive) and the GI50 [15] was 12.7 µM (inactive). For the same compound, the GI50 [16] was 24.1 µM (inactive), the GI50 [17] was 8.75 µM (inactive) and the GI50 [18] was 17.8 µM (inactive). For the same compound, the GI50 [19] was 2.62 µM (inactive), the GI50 [20] was 11.2 µM (inactive) and the GI50 [55] was 16.4 µM (inactive). The GI50 [56] was 6.04 µM (inactive), the GI50 [23] was 19.2 µM (inactive) and the GI50 [25] was 17.2 µM (inactive). For the same compound, the GI50 [26] was 25.8 µM (inactive), the GI50 [27] was 13.8 µM (inactive) and the GI50 [28] was 3.03 µM (inactive). For the same compound, the GI50 [30] was 23.7 µM (inactive), the GI50 [31] was 28.4 µM (inactive) and the GI50 [32] was 4.76 µM (inactive). For the same compound, the GI50 [33] was 14.1 µM (inactive), the GI50 [34] was 12.3 µM (inactive) and the GI50 [35] was 20.1 µM (inactive). The GI50 [36] was 10.9 µM (inactive), the GI50 [37] was 17.1 µM (inactive) and the GI50 [38] was 17.7 µM (inactive). The GI50 [39] was 12.7 µM (inactive), the GI50 [40] was 46.3 µM (inactive) and the GI50 [41] was 19.8 µM (inactive). For the same compound, the GI50 [42] was 11.4 µM (inactive), the GI50 [43] was 5.73 µM (inactive) and the GI50 [44] was 52.7 µM (inactive). The GI50 [45] was > 10 µM (inactive), the GI50 [46] was 36 µM (inactive) and the GI50 [47] was 15.2 µM (inactive). The GI50 [48] was 22.5 µM (inactive), the GI50 [49] was 13.8 µM (inactive) and the GI50 [50] was 11.6 µM (inactive).

From ChEMBL document CHEMBL1201862, “PubChem BioAssay data set” (2004)
